Laboratory results: PMC12418948, “Intranasal Administration of KCNN2 Blocking Peptide Improves Deficits in Cognitive Flexibility in Mouse Model of Fetal Alcohol Spectrum Disorders” (International Journal of Neuropsychopharmacology, 2025)
Positions of bridges follow the written chain, without caps; N, C: chain ends. Residues, ends and D or L forms follow the SMILES beside them. No end group written: not given here.

Assays:
KCNN (SK) channel = settings: cited from earlier work
KCNN2 = settings: compared with Lei-Dab7; cited from earlier work
Excerpt: KCNN2 plays a key role in regulating neuronal excitability by controlling the medium afterhyperpolarization.[20] Previous studies have shown that KCNN2 blockers have therapeutic effects to improve learning and memory in several mouse and rat models of neuropsychiatric disorders associated with increased KCNN2 expression.[21–24] […] In the current study, we used another KCNN2 blocker, Lei-Dab7 (a synthetic derivative of leiurotoxin), a peptide isolated from the venom of the yellow scorpion (L. quinquestriatus hebraeus). […] We evaluated intranasal administ ... || Taken together, our findings advocate for the therapeutic potential of Lei-Dab7 or other KCNN2 blockers for FASD and possibly other neurodevelopmental diseases that similarly involve KCNN2 upregulation, such as Angelman syndrome.[21] Lei-Dab7 stands out for its high potency and specificity in blocking the KCNN2 channel. […] Despite outstanding properties, Lei-Dab7’s bioavailability, efficacy, and toxicity as a the ...

rat = test system: rat; parameters: method as in 2 sources, one per row (each row's own in cited_ref): ref 82 = [82]; PMID 15985330; doi:10.1016/j.neulet.2005.05.050; 82. Deschaux O , Bizot JC . Apamin produces selective improvements of learning in rats . Neurosci Lett. 2005; 386 : 5 – 8 . 10.1016/j.neulet.2005.05.050 15985330 ||| ref 26, 82, 83 = [26]; PMID 18561910; doi:10.1016/j.ejphar.2008.05.019; 26. Mpari B , Sreng L , Regaya I , Mourre C . Small-conductance Ca(2+)-activated K(+) channels: heterogeneous affinity in rat brain structures and cognitive modulation by specific blockers . Eur J Pha || [82]; PMID 15985330; doi:10.1016/j.neulet.2005.05.050; 82. Deschaux O , Bizot JC . Apamin produces selective improvements of learning in rats . Neurosci Lett. 2005; 386 : 5 – 8 . 10.1016/j.neulet.2005.05.050 15985330 || [83]; PMID 9148239; doi:10.1016/s0304-3940(97)13367-5; 83. Deschaux O , Bizot JC , Goyffon M . Apamin improves learning in an object recognition task in rats . Neurosci Lett. 1997; 222 : 159 – 162 . 10.1016/s0304-3940(97)13367-5 9148239; settings: cited from earlier work
[1] = test system: older adults affected by Alzheimer disease or mild cognitive impairment; settings: intranasal; older adults with Alzheimer disease or mild cognitive impairment; cited from earlier work
Excerpt: (§1) The potential of intranasal delivery in treating a broad spectrum of neurological disorders, especially those related to memory and cognition, is noteworthy.[28] Historically, intranasal administration has gained attention in clinical trials as an effective delivery method, especially for small molecules ...

[2] = test system: neurodevelopmental disorders such as autism spectrum disorder; settings: nasal application; cited from earlier work
Excerpt: as §1

[3] = intranasal vs subcutaneous or intramuscular administration; cited from earlier work
Excerpt: as §1

[4] = pregnant CD-1 mice, i.p. 4.0 g/kg/day 25% ethanol at E16 and E17; from 30 minutes after injection at E16 to 1 hour after injection at E17; cited from earlier work
Description: All mice (CD-1) used in this study were purchased from Charles River Laboratories and were maintained in-house on a light–dark cycle (lights on 6:00 AM to 6:00 PM) at a constant temperature (22 ± 1°C). Pregnant mice received i.p. injections of 25% ethanol in PBS at 4.0 g/kg/day or PBS only as the control at embryonic day (E) 16 and E17. The dam’s blood alcohol concentration ranges from approximately 140 to 300 mg/dL (from 30 minutes after injection at E16 to 1 hour after injection at E17).[35] All procedures were approved by the institutional animal care and use committee of the Children’s Nat ...

[5] = i.p. administration, PAE mice; cited from earlier work
Excerpt: KCNN2 plays a key role in regulating neuronal excitability by controlling the medium afterhyperpolarization.[20] Previous studies have shown that KCNN2 blockers have therapeutic effects to improve learning and memory in several mouse and rat models of neuropsychiatric disorders associated with increased KCNN2 expression.[21–24]

human KCNN2 = human KCNN2 (Homo sapiens, UniProt Q9H2S1); assay: Thallium flux assay, KCNN2 channel block; assay type: cell-based; settings: HEK293 stably expressing human KCNN2; thallium flux, FLIPR Potassium Assay Kit, FLIPR TETRA; 4 concentrations, n = 4; 0% = 1 μM A23187, 100% = 3 μM UCL1684
human KCNN2, sequence (Q9H2S1 whole entry): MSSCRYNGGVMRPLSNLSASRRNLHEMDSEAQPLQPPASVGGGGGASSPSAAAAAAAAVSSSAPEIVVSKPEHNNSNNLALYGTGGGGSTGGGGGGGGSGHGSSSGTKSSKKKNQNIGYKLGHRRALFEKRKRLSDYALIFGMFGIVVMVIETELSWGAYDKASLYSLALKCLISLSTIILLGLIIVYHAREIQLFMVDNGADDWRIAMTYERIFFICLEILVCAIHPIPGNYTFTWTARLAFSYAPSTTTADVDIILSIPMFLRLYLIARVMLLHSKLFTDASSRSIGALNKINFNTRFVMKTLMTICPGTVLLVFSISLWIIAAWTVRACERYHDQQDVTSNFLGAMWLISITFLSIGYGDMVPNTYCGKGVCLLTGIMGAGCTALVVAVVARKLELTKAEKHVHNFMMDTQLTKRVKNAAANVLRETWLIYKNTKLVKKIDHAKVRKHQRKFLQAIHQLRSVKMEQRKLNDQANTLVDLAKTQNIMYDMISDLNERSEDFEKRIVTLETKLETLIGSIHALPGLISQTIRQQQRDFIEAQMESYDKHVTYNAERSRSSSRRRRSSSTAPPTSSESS
Description: The effect of tamapin and Lei-Dab7 to block the KCNN2 channel was assessed by the thallium flux (potassium ion surrogate) assay using FLIPR Potassium Assay KIT (Molecular Devices, CA) and a FLIPR TETRA fluorescence imaging plate reader (Molecular Devices, CA). Human embryonic kidney (HEK) 293 cell line stably expressing human KCNN2 (Charles River, MA) were plated on BioCoat Poly-D-Lysine 384-well Black/Clear Plates (BD Biosciences, NJ) at 15 000 to 30 000 cells per well and incubated at 37°C overnight or until cells form near confluent monolayer. A baseline fluorescence was recorded during the pre-incubation period, followed by activation in the stimulus buffer (K^+-free buffer with 5 mM Tl^+). The effects of tamapin and Lei-Dab7 on KCNN2 to inhibit KCNN2 channel were evaluated at 4 different concentrations (n = 4) each, based on fluorescence changes due to the treatments. The signal elicited by the respective positive control agonist [1 μM A23187 (Tocris, UK)] was set to 0% inhibition, and the signal in the presence of the respective positive control antagonists [3 μM UCL1684 (Tocris, UK)] was set to 100% inhibition. The IC50 values were defined as the concentration at which the percent inhibition equals 50.
To determine the dose of Lei-Dab7 to be tested, we compared the effect of Lei-Dab7 and tamapin in blocking human KCNN2 expressed in HEK293 cells using a thallium-based potassium ion channel assay. […] Based on the effective dose of tamapin in mitigating motor skill–learning deficits in PAE mice (15 μg/kg body weight via i.p.)[17] and higher brain uptake of therapeutics by intranasal delivery than by i.p. delivery, we chose a dose of 3.0 μg/kg body weight to test the effect of intranasal administration of Lei-Dab7.
Supplementary Figure 3. Concentration-response relationships of Lei-Dab7 and Tamapin on the Inhibition of KCNN2 channels. (A, B) The concentration-response relationships of Lei-Dab7 (A) and Tamapin (B) on the inhibition of KCNN2 (SK2) channels examined by the thallium flux assay are presented. […]

c1ccc2c(c1)c1cc[n+]2CCCCC[n+]2ccc(c3ccccc32)NCCCCCN1 [UCL 1848]
KCNN (SK) channel blocking specificity (KCNN (SK) channel): nonspecific KCNN (SK) channel blockers

apamin (CNCKAPETALCARRCQQH-NH2; disulfide 1-11, 3-15; UniProt P01500 28-45, looked up)
KCNN2 selectivity in words (KCNN2): less selective KCNN2 blocker | KCNN (SK) channel blocking specificity (KCNN (SK) channel): nonspecific KCNN (SK) channel blockers | effect on learning (rat): promote learning

scyllatoxin (AFCNLRMCQLSCRSLGLLGKCIGDKCECVKH; UniProt P16341 1-31, looked up)
KCNN (SK) channel blocking specificity (KCNN (SK) channel): nonspecific KCNN (SK) channel blockers

CN1CCc2cc3c(cc2[C@H]1[C@@H]1OC(=O)c2c1ccc1c2OCO1)OCO3 [bicuculline]
KCNN (SK) channel blocking specificity (KCNN (SK) channel): nonspecific KCNN (SK) channel blockers

insulin
memory effect [1]: improving memory

c1cc2cc(c1)C[n+]1ccc(c3ccccc31)NCc1ccc(cc1)CNc1cc[n+](c3ccccc13)C2 [UCL 1684]
KCNN (SK) channel blocking specificity (KCNN (SK) channel): nonspecific KCNN (SK) channel blockers

oxytocin
efficacy, repeated doses [2]: inconsistent | efficacy, single administration [2]: promising

mouse [D-Leu-4]OB3 [synthetic leptin-like peptide]
brain bioavailability, intranasal vs other methods (times) [3]: 4 times

CCO [ethanol]
dam's blood alcohol concentration [4]: 140 to 300 mg/dL

CC[C@H](C)[C@@H]1NC(=O)[C@@H]2CSSC[C@H](NC(=O)[C@H](Cc3ccccc3)NC(=O)[C@H](C)N)C(=O)N[C@@H](CC(N)=O)C(=O)N[C@@H](CC(C)C)C(=O)N[C@@H](CCCNC(=N)N)C(=O)N[C@@H](CCCNC(=N)N)C(=O)N[C@H]3CSSC[C@H](NC(=O)[C@H](CCC(=O)O)NC(=O)[C@H](CCC(=O)O)NC(=O)CNC1=O)C(=O)N[C@@H](CCCCN)C(=O)N[C@H](C(=O)N[C@H](C(=O)N1CCC[C@H]1C(=O)N[C@@H](Cc1ccc(O)cc1)C(N)=O)C(C)C)CSSC[C@H](NC(=O)[C@H](CO)NC(=O)[C@H](CC(C)C)NC(=O)[C@H](CCC(=O)O)NC3=O)C(=O)N[C@@H](CCCNC(=N)N)C(=O)N[C@@H](CO)C(=O)N[C@@H](CC(C)C)C(=O)NCC(=O)N[C@@H](CC(C)C)C(=O)N[C@@H](CC(C)C)C(=O)NCC(=O)N[C@@H](CCCCN)C(=O)N2 [tamapin] (H-AFCNLRRCELSCRSLGLLGKCIGEECKCVPY-NH2; disulfide 3-21, 8-26, 12-28)
crosses the blood brain barrier [5]: crosses the blood brain barrier | IC50 (human KCNN2): 50 nM
